The nature of assay [1]: MG binding of peptide ligands from screening and their derivatives. Particulars: for MG binding: 11 hour incubation with 5 μM MG in PBS buffer (pH 7.4); for MG binding of phosphorylated form (in words): phosphorylated but not unphosphorylated form. Also noted: key to MG binding: −: no binding; +: weak binding; ++: mild binding; +++: strong binding; ++++: very strong binding.

Assay [2] in a line: Sequential screening of PDMS affixed OBOC bead array with three dyes. The class given is binding. The note with it: 100 μM dye in PBS, three dyes incubated sequentially on the same bead array. The protocol: Silicon Elastomer Base was mixed completely with Silicone Elastomer Curing Agent at ratio 10:1 in volume and the solution was kept in vacuum container for 15 to 20 minutes to eliminate the gas bubbles formed during the mixing process. After the removal of all residual bubbles, approximately 0.5-1 mL of PDMS solution was added into the bottom of a 60 mm culture dish. The dish was then spun on a single wafer spin processor (Laurell Technologies Corporation®, model WS-6505-6NPP/Lite) to evenly distribute the solution over the plates, at a speed of 4000 rpm for 30 s. A 5 μm layer of PDMS was formed on the bottom of dish and was cured at 80° C. for 5 min or at room temperature for 24 hrs to allow for beads immobilization. Knowing that the PDMS coating was about 5 μm thick and the radius of bead was around 45 μm, the percentage of free bead surface area was estimated by the formula of [1-2πrh/4πr^2]×100% (h=thickness of PDMS layer; r=radius of bead) to be approximately 95%. The library beads resuspended in 70% ethanol solution were first randomly placed on the surface of a glass plate that was 10% smaller than the dish used in the experiment. After the ethanol evaporated, a syringe needle was used to adjust the dry beads to evenly redistribute beads on the glass surface. Then the dish was inverted and the PDMS layer was pressed down onto the glass plate with beads. The library beads were embedded partly inside the PDMS layer.
Dye solutions were prepared in PBS to a 100 μM final concentration and 5 mL of each dye solution were added into the 60 mm dish with beads. Three dyes were tested sequentially. The dish was kept swirling at 60 rpm on the rotator. The dye binding was monitored for 90 minutes, and then the dye solution was removed from the dishes and PBS was added to rinse the beads on the bottom to remove the color dye. The PBS solution was changed every 30 min and the dish was always swirled as above. The beads color change was also observed and recorded at certain time interval during the whole wash process to collect data of color dissociation. Before adding the next dye solution, beads were washed with 70% ethanol to completely remove residual dye and were rinsed with PBS solution three times afterwards.
A representative positive bead for each color was selected for the color binding and dissociation study. A series of images were taken at different time points during the binding and washing process. From the images taken, regions of interest (ROI) with the same size were picked up from the color beads and colorless control beads. The value from the control bead was subtracted from the color bead to get quantitated color value for each single color bead. The measure of the color intensity for each color dye was performed using the Kodak Image Station 2000MM.
The PDMS affixed bead array was incubated with three different dyes sequentially. […] Eleven beads were selected for further analysis based on their characteristic binding profiles (FIG. 2). […] The amino acid sequences of the peptides bound to the beads were determined (Table 1).

Assay [3] is described as follows: Abltide motif OBOC library screening with MG before and after dephosphorylation. The class given is binding. Particulars: for Post-dephos fluorescent signal: after dephosphorylation (treatment with 50% HF); for Pre-dephos fluorescent signal: before dephosphorylation; for ΔF/F: pre- vs post-dephosphorylation. The source says:
Screening for Library category 2 (Table 2) necessitates that the entire OBOC bead library array be scanned with and without MG or other dyes, before and after PTM. Here, we will use c-src PTK as an example. We have previously reported the use of OBOC combichem and radiosubstrate screening method to identify an efficient and specific peptide substrate (YIYGSFK; SEQ ID NO:35) for c-src PTK. […] Recently, we prepared YIY(P)GSFKKKXn (SEQ ID NO:216) libraries (X=all 19 L-amino acids except Cys, n=6-9) and screened them against MG. After 1 hr incubation, near-infra-red image of the entire immobilized library was captured. The bead library was then thoroughly washed, and dephosphorylated with 50% HF. Beads that strongly fluoresce near infra-red before dephosphorylation but fluoresce weakly (or none) after dephosphorylation were selected as candidate GESIs for c-src PTK (Table 6). Of these 8 peptides isolated from screening ˜300,000 beads, 3 has 1 Trp, and the remaining 5 have no Trp. Work is currently underway to characterize their substrate efficiency and specificity biochemically in a cell-free system and subsequently inside living cells. In principle, using various dyes and PKs to screen OBOC libraries, we should be able to develop several GESIs against several PKs that can be multiplexed with different dyes in living cells. We have developed GESIs for one serine/threonine kinase (PKA), and two tyrosine kinases (c-src and bcr-abl). Very recently, we have designed another library with a c-abl motif (“Abltide”): EAIY(P)AAPFAKKXn (SEQ ID NO:217).
After screening about one million beads with MG, we identified four peptides that greatly activate MG in phosphorylated but not dephosphorylated form (Table 7). Photomicrograph of LLT4bead is shown in FIG. 21, with a marked decrease in fluorescent signal (relative arbitrary level of 1930 to 93 and a ΔF/F value of 19; see right columns of Table 7) after dephosphorylation (treatment with 50% HF). High consensus was observed. All 4 beads have a Tyr at X7, a negative-charged amino acid at X4, hydrophobic amino acids at X1, X6 and X8 (3 out 4 have Val at X6 and Tyr at X8). Three out four beads have a positive-charged amino acid at X2 position. To discover GESIs for PKA, we will include the known PKA substrate motif (RRX[S/T]; SEQ ID NO:223) into the OBOC libraries. In some libraries, the known kinase substrate motifs will be placed between two stretches of random residues. In some cases, we have found increased (instead of decrease) fluorescence after dephosphorylation. These peptides are potential leads for developing phosphatase sensors.

Entries after “also recorded” stand apart in the source; their conditions may differ. Bridges are numbered along the chain shown (N, C = ends). Where no end group is shown, it is not given here. [ ]: non-standard residue; d: D form. pY = N[C@@H](Cc1ccc(OP(=O)(O)O)cc1)C(=O)O

Take “1C (CDDYI[pY]GSFKPYIAC; disulfide 1-15 (inferred)) [Peptide 1C]”: in assay [1], the MG binding entry is recorded as “++++”.
On the same count and under the same terms, to “2C (CDVYI[pY]GSFKNDYIC; disulfide 1-15 (inferred)) [Peptide 2C]” belongs “++++”; to “3-P (DNYIYGSFKPWEWC; synthetic genetically encoded small illuminant (GESI) malachite green (MG) binding peptide 3-P from linear library L-1)”, “++”; to “3C (CDNYI[pY]GSFKNPWEWC; disulfide 1-16 (inferred)) [Peptide 3C]”, “++++”.
In the case of “4C (CDVYI[pY]GSFKYWPAC; disulfide 1-15 (inferred)) [Peptide 4C]”, in assay [1], the MG binding entry is “++++”.
On to “5C (CDTYI[pY]GSFKVNPDC; disulfide 1-15 (inferred)) [Peptide 5C]”, for which the MG binding entry in assay [1] is recorded as “+++”.
Turning to “CEIHRIC (synthetic genetically encoded small illuminant (GESI) peptide of bead #9)”, the Dye binding entry in assay [2] (listed as # 9) is recorded as “Bromocresol”; in assay [2] (listed as #9) it was “only bind to bromocresol purple; also recorded: bind only to bromocresol purple”.
In the case of “CGNTEPC (synthetic genetically encoded small illuminant (GESI) peptide of bead #6)”, the results for the Dye binding result in assay [2] (listed as # 6) and in assay [2] (listed as #6) were “Malachite green” and “only bind to malachite green; also recorded: bind only to malachite green”, respectively.
As for “CHPLLPC (not fully specified (bridges); cysteine pairing not given here; also: bead-bound) [Bead #5]”, the Dye binding entry is on record as “Bromocresol” in assay [2] (listed as # 5) and “only bind to bromocresol purple; also recorded: bind only to bromocresol purple” in assay [2] (listed as #5).
On to “CLMNKWC (not fully specified (bridges); cysteine pairing not given here; also: bead-bound) [Bead #2]”, for which the Dye binding result in assay [2] (listed as #2) was “bind to both indigo carmine and bromocresol purple”.
In the case of “CLSDEFC (not fully specified (bridges); cysteine pairing not given here; also: bead-bound) [Bead #11]”, the Dye binding entry in assay [2] (listed as # 11) is on record as “Malachite green”; in assay [2] (listed as #11), “only bind to malachite green; also recorded: bind only to malachite green”.
For the substance “CMTQEAC (synthetic genetically encoded small illuminant (GESI) peptide of bead #8)”, the Dye binding result in assay [2] (listed as # 8) is “Malachite green”; in assay [2] (listed as #8) it was “only bind to malachite green; also recorded: bind only to malachite green”.
Take “CQPDLTC (not fully specified (bridges); cysteine pairing not given here; also: bead-bound) [Bead #3]”: the Dye binding entry is on record as “Malachite green” in assay [2] (listed as # 3) and “only bind to malachite green; also recorded: bind only to malachite green” in assay [2] (listed as #3).
In the case of “CYKWWVC (synthetic genetically encoded small illuminant (GESI) peptide of bead #7)”, in assay [2] (listed as #7), the Dye binding entry is “bind to both indigo carmine and bromocresol purple”.
Consider “DFMRQGVYDIPE (synthetic genetically encoded small illuminant (GESI) malachite green (MG) binding Peptide 5)”, for which, in assay [1], the MG binding entry is “++” and the “MG binding of phosphorylated form (in words)” value (“MG binding … (in words)” for short) is on record as “bound MG”.
As to “DILDDGDEIQGE (synthetic genetically encoded small illuminant (GESI) malachite green (MG) binding Peptide 1)”, in assay [1], the MG binding entry was “+” and the “MG binding … (in words)” value was “bound MG”.
Regarding “DRDGDGDHRKIE (synthetic genetically encoded small illuminant (GESI) malachite green (MG) binding Peptide 3)”, the MG binding entry in assay [1] was “+++”.
Consider “DSDSWGEYFHEE (synthetic genetically encoded small illuminant (GESI) malachite green (MG) binding Peptide 4)”, for which, in assay [1], the MG binding result was “++” and the “MG binding … (in words)” value is “bound MG”.
Turning to “EAIY(P)AAPFAKKLYIMDGWF (EAI[pY]AAPFAKKLYIMDGWF) [LLT4]”, in assay [3], the Post-dephos fluorescent signal was determined as 93 relative arbitrary level, the Pre-dephos fluorescent signal worked out at 1930 relative arbitrary level and the ΔF/F is on record as 19.
In assay [3], “EAIY(P)AAPFAKKYYVQDSRA (EAI[pY]AAPFAKKYYVQDSRA) [LLT2]” returned a Post-dephos fluorescent signal of 44 relative arbitrary level, a Pre-dephos fluorescent signal of 575 relative arbitrary level and a ΔF/F of 12.
The like results for “EAIY(P)AAPFAKKYYVSERKW (EAI[pY]AAPFAKKYYVSERKW) [LLT3]” were, in that order, 63 relative arbitrary level, 835 relative arbitrary level and 12.
The like results for “EAIY(P)AAPFAKKYYVYDMHI (EAI[pY]AAPFAKKYYVYDMHI) [LLT1]” were, in that order, 72 relative arbitrary level, 939 relative arbitrary level and 12.

The record behind these values is patent publication US10598667B2, “Functional illumination in living cells” (The Regents of the University of California, priority 2013, dated 2020).
